EC50 and Emax data for 28 compounds are collected here from patent publication US9212171B2, “Ethynyl compounds” (Hoffmann-La Roche Inc., priority 2011, dated 2015).

Broadly, the EC50 is the midpoint of the concentration-response curve. The low end stands for a more potent agent, the high end for a less potent agent.

The test has as its target human mGlu5a receptor (Homo sapiens (Human), UniProt P41594). Briefly: Intracellular Ca2+ mobilization assay (mGlu5 PAM). Type of test: cell-based. The following applies: for EC50: HEK-293 cells stably transfected with human mGlu5a, L-glutamate added at EC20 (typically around 80 μM); for Emax: maximal response in % of the maximal stimulatory effect obtained with saturating concentrations of L-glutamate, read-out: Eff. (%). As for the experimental part: A monoclonal HEK-293 cell line stably transfected with a cDNA encoding for the human mGlu5a receptor was generated; for the work with mGlu5 Positive Allosteric Modulators (PAMs), a cell line with low receptor expression levels and low constitutive receptor activity was selected to allow the differentiation of agonistic versus PAM activity. Cells were cultured according to standard protocols (Freshney, 2000) in Dulbecco's Modified Eagle Medium with high glucose supplemented with 1 mM glutamine, 10% (vol/vol) heat-inactivated bovine calf serum, Penicillin/Streptomycin, […] hygromycin and 15 μg/ml blasticidin (all cell culture reagents and antibiotics from Invitrogen, Basel, Switzerland).
About 24 hrs before an experiment, 5×10^4 cells/well were seeded in poly-D-lysine coated, black/clear-bottomed 96-well plates. The cells were loaded with 2.5 μM Fluo-4AM in loading buffer (1×HBSS, 20 mM HEPES) for 1 hr at 37° C. and washed five times with loading buffer. The cells were transferred into a Functional Drug Screening System 7000 (Hamamatsu, Paris, France), and 11 half logarithmic serial dilutions of test compound at 37° C. were added and the cells were incubated for 10-30 min. with on-line recording of fluorescence. Following this pre-incubation step, the agonist L-glutamate was added to the cells at a concentration corresponding to EC20 (typically around 80 μM) with on-line recording of fluorescence; in order to account for day-to-day variations in the responsiveness of cells, the EC20 of glutamate was determined immediately ahead of each experiment by recording of a full dose-response curve of glutamate.
Responses were measured as peak increase in fluorescence minus basal (i.e. fluorescence without addition of L-glutamate), normalized to the maximal stimulatory effect obtained with saturating concentrations of L-glutamate. Graphs were plotted with the % maximal stimulatory using XLfit, a curve fitting program that iteratively plots the data using Levenburg Marquardt algorithm. The single site competition analysis equation used was y=A+((B−A)/(1+((x/C)D))), where y is the % maximal stimulatory effect, A is the minimum y, B is the maximum y, C is the EC50, x is the log 10 of the concentration of the competing compound and D is the slope of the curve (the Hill Coefficient). From these curves the EC50 (concentration at which half maximal stimulation was achieved), the Hill coefficient as well as the maximal response in % of the maximal stimulatory effect obtained with saturating concentrations of L-glutamate were calculated.
A depression of the signal observed after addition of the EC20 concentration of L-glutamate was indicative of an inhibitory activity of the test compound.
(In general: Calcium flux is commonly read through the fluorescence of an indicator in the cells.)

human mGlu5a receptor, sequence (P41594 other isoform, or with tags, fused parts or gaps): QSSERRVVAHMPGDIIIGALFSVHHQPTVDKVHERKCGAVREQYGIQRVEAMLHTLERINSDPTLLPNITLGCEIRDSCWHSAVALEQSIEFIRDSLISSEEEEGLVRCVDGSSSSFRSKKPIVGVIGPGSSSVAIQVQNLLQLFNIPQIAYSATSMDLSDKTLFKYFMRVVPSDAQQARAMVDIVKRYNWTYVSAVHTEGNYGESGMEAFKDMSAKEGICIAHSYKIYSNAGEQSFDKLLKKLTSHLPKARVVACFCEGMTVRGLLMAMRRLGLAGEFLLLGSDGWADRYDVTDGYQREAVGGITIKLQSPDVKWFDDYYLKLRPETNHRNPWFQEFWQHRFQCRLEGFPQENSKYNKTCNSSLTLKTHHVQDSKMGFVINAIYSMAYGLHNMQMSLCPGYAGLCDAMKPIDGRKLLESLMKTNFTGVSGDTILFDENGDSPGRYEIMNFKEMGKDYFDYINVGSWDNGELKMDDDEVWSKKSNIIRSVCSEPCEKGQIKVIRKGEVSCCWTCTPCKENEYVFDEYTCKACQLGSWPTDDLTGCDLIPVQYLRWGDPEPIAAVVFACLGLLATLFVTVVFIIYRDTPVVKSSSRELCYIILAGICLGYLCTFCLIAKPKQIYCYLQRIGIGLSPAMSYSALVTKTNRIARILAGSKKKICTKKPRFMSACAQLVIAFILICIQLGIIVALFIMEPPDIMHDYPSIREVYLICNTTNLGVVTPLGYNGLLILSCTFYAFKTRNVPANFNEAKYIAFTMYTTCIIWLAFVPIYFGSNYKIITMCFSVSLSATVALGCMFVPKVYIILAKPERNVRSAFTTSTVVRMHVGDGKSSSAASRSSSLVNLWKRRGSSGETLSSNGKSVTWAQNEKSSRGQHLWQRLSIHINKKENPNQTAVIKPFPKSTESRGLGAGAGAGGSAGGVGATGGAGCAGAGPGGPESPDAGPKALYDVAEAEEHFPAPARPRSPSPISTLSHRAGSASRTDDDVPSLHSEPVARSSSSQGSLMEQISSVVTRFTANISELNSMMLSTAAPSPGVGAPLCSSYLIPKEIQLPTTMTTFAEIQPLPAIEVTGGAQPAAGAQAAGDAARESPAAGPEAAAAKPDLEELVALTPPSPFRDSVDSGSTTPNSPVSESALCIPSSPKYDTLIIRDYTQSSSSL

On to `CN1C(=O)C(c2ccc(C#Cc3ccccc3)cn2)CC1(C)C` (racemic) [Example 1, (RS)-1,5,5-Trimethyl-3-(5-(phenylethynyl)pyridin-2-yl)pyrrolidin-2-one], for which the EC50 worked out at 60 nM and the Emax turned out to be 111%.
For `CN1C(=O)C(c2ccc(C#Cc3cccnc3)cn2)CC1(C)C` (racemic) [Example 2, (RS)-1,5,5-Trimethyl-3-(5-(pyridin-3-ylethynyl)pyridin-2-yl)pyrrolidin-2-one] the same measures were 981 nM and 107%.
Taken in the same sequence, the figures for `CN1C(=O)C(c2ccc(C#Cc3cccc(Cl)c3)cn2)CC1(C)C` (racemic) [Example 3, (RS)-3-(5-((3-chlorophenyl)ethynyl)pyridin-2-yl)-1,5,5-trimethylpyrrolidin-2-one] were 38 nM and 81%.
`CN1C(=O)C(c2ccc(C#Cc3cccc(F)c3)cn2)CC1(C)C` (racemic) [Example 4, (RS)-3-(5-((3-Fluorophenyl)ethynyl)pyridin-2-yl)-1,5,5-trimethylpyrrolidin-2-one]: the EC50 was determined as 61 nM and the Emax is 103%.
Regarding `CN1C(=O)C(C(=O)OCc2ccccc2)(c2ncc(C#Cc3ccccc3)cn2)CC1(C)C` (racemic) [Example 5, (RS)-Benzyl 1,5,5-trimethyl-2-oxo-3-(5-(phenylethynyl)pyrimidin-2-yl)pyrrolidine-3-carboxylate], a half-maximal effect (EC50) was put at 528 nM and the Emax was determined as 48%.
Taken in the same sequence, the figures for `CN1C(=O)C(c2ncc(C#Cc3ccccc3)cn2)CC1(C)C` (racemic) [Example 6, (RS)-1,5,5-Trimethyl-3-(5-(phenylethynyl)pyrimidin-2-yl)pyrrolidin-2-one] were 130 nM and 90%.
Taken in the same sequence, the figures for `CN1C(=O)C(c2ncc(C#Cc3cccc(F)c3)cn2)CC1(C)C` (racemic) [Example 7, (RS)-3-(5-((3-fluorophenyl)ethynyl)pyrimidin-2-yl)-1,5,5-trimethylpyrrolidin-2-one] were 137 nM and 85%.
Taken in the same sequence, the figures for `CN1C(=O)C(c2ncc(C#Cc3ccc(F)cc3)cn2)CC1(C)C` (racemic) [Example 8, (RS)-3-(5-((4-Fluorophenyl)ethynyl)pyrimidin-2-yl)-1,5,5-trimethylpyrrolidin-2-one] were 390 nM and 105%.
Consider `CN1C(=O)C(c2ccc(C#Cc3cccc(F)c3)nn2)CC1(C)C` (racemic) [Example 9, (RS)-3-(6-((3-Fluorophenyl)ethynyl)pyridazin-3-yl)-1,5,5-trimethylpyrrolidin-2-one], for which the EC50 came to 34 nM and the Emax worked out at 88%.
Taken in the same sequence, the figures for `CN1C(=O)C(c2ccc(C#Cc3ccccc3)nn2)CC1(C)C` (racemic) [Example 11, (RS)-1,5,5-trimethyl-3-(6-(phenylethynyl)pyridazin-3-yl)pyrrolidin-2-one] were 58 nM and 115%.
For `CN1C(=O)C(c2ccc(C#Cc3ccccc3)cn2)CCC1(C)C` (racemic) [Example 12, (RS)-1,6,6-Trimethyl-3-(5-(phenylethynyl)pyridin-2-yl)piperidin-2-one] the same measures were 113 nM and 103%.
Regarding `CN1C(=O)C(c2ccc(C#Cc3cccc(F)c3)cn2)CCC1(C)C` (racemic) [Example 13, (RS)-3-(5-((3-Fluorophenyl)ethynyl)pyridin-2-yl)-1,6,6-trimethylpiperidin-2-one], the EC50 turned out to be 98 nM and the Emax was determined as 90%.
For `CN1C(=O)C(c2ccc(C#Cc3ccc(F)cc3)cn2)CCC1(C)C` (racemic) [Example 14, (RS)-3-(5-((4-Fluorophenyl)ethynyl)pyridin-2-yl)-1,6,6-trimethylpiperidin-2-one] the same measures were 212 nM and 96%.
Taken in the same sequence, the figures for `CN1C(=O)C(c2ncc(C#Cc3ccccc3)cn2)CCC1(C)C` (racemic) [Example 15, (RS)-1,6,6-Trimethyl-3-(5-(phenylethynyl)pyrimidin-2-yl)piperidin-2-one] were 179 nM and 91%.
For `CN1C(=O)C(c2ncc(C#Cc3ccc(F)cc3)cn2)CCC1(C)C` (racemic) [Example 16, (RS)-3-(5-((4-Fluorophenyl)ethynyl)pyrimidin-2-yl)-1,6,6-trimethylpiperidin-2-one], the EC50 is 573 nM and the Emax amounted to 96%.
Taken in the same sequence, the figures for `CN1C(=O)C(c2ncc(C#Cc3cccc(F)c3)cn2)CCC1(C)C` (racemic) [Example 17, (RS)-3-(5-((3-fluorophenyl)ethynyl)pyrimidin-2-yl)-1,6,6-trimethylpiperidin-2-one] were 132 nM and 80%.
For `CN1C(=O)C(O)(c2ccc(C#Cc3ccccc3)cn2)CC1(C)C` (racemic) [Example 18, (RS)-3-Hydroxy-1,5,5-trimethyl-3-(5-(phenylethynyl)pyridin-2-yl)pyrrolidin-2-one] the same measures were 414 nM and 126%.
Taken in the same sequence, the figures for `COC1(c2ccc(C#Cc3ccccc3)cn2)CC(C)(C)N(C)C1=O` (racemic) [Example 19, (RS)-3-Methoxy-1,5,5-trimethyl-3-(5-(phenylethynyl)pyridin-2-yl)pyrrolidin-2-one] were 96 nM and 108%.
Take `CN1C(=O)C(C)(c2ccc(C#Cc3ccccc3)cn2)CC1(C)C` (racemic) [Example 20, (RS)-1,3,5,5-Tetramethyl-3-(5-(phenylethynyl)pyridin-2-yl)pyrrolidin-2-one]: the EC50 was 90 nM and the Emax was determined as 109%.
Consider `CN1C(=O)C(c2ncc(C#Cc3cccc(F)c3)cc2F)CC1(C)C` (racemic) [Example 21, (RS)-3-(3-fluoro-5-((3-fluorophenyl)ethynyl)pyridin-2-yl)-1,5,5-trimethylpyrrolidin-2-one], for which the EC50 was determined as 188 nM and the Emax stood at 91%.
Taken in the same sequence, the figures for `CN1CCCCC(c2ccc(C#Cc3ccccc3)cn2)C1=O` (racemic) [Example 22, (RS)-1-Methyl-3-(5-phenylethynyl-pyridin-2-yl)-azepan-2-one] were 59 nM and 59%.
Taken in the same sequence, the figures for `CN1CCCCC(c2ccc(C#Cc3ccc(F)cc3)cn2)C1=O` (racemic) [Example 23, (RS)-3-[5-(4-Fluoro-phenylethynyl)-pyridin-2-yl]-1-methyl-azepan-2-one] were 90 nM and 61%.
Taken in the same sequence, the figures for `CN1CCCCC(c2ccc(C#Cc3cccc(F)c3)cn2)C1=O` (racemic) [Example 24, (RS)-3-[5-(3-Fluoro-phenylethynyl)-pyridin-2-yl]-1-methyl-azepan-2-one] were 39 nM and 69%.
`CN1C(=O)[C@@H](c2ccc(C#Cc3ccccc3)cn2)[C@@H]2CCC[C@@H]21` (racemic) [Example 27, (3RS,3aSR,6aSR)-1-Methyl-3-(5-phenylethynyl-pyridin-2-yl)-hexahydro-cyclopenta[b]pyrrol-2-one]: the EC50 was 47 nM and the Emax is 53%.
For `CN1C(=O)[C@@H](c2ccc(C#Cc3ccc(F)cc3)cn2)[C@@H]2CCC[C@@H]21` (racemic) [Example 29, (3RS,3aSR,6aSR)-3-[5-(4-Fluoro-phenylethynyl)-pyridin-2-yl]-1-methyl-hexahydro-cyclopenta[b]pyrrol-2-one] the same measures were 78 nM and 53%.
On to `CN1C(=O)[C@@H](c2ccc(C#Cc3cccc(F)c3)cn2)[C@@H]2CCC[C@@H]21` (racemic) [Example 30, (3RS,3aSR,6aSR)-3-[5-(3-Fluoro-phenylethynyl)-pyridin-2-yl]-1-methyl-hexahydro-cyclopenta[b]pyrrol-2-one], for which the EC50 worked out at 33 nM and the Emax amounted to 57%.
In the case of `CN1C(=O)[C@@H](c2ncc(C#Cc3ccccc3)cn2)[C@@H]2CCC[C@@H]21` (racemic) [Example 33, (3RS,3aSR,6aSR)-1-Methyl-3-(5-phenylethynyl-pyrimidin-2-yl)-hexahydro-cyclopenta[b]pyrrol-2-one], the EC50 is 52 nM and the Emax was found to be 52%.
For `CN1C(=O)[C@@H](c2ccc(C#Cc3ccccc3)cn2)[C@@H]2CCCC[C@@H]21` (racemic) [Example 34, (3RS,6SR,7SR)-1-Methyl-3-(5-phenylethynyl-pyridin-2-yl)-octahydro-indol-2-one] the same measures were 185 nM and 82%.
